Consider 13 molecules from US20150051242A1, “RAFAMYCIN ANALOGS AND METHODS FOR MAKING SAME” (HANGZHOU ZYLOX PHARMA CO., LTD, priority 2012, published 2015).

Assay [1] addresses T1, mTOR (Homo sapiens, UniProt P42345+P62942).
T1 construct: purchased Invitrogen (mTOR); SinoBiological (FKBP12) PV4753 (mTOR); 10268-H08E (FKBP12)
Put plainly: mTOR TR-FRET kinase assay (phosphorylation of GFP-4E-BP1). The format is biochemical. The settings on record: 10 μM ATP, 0.4 μM GFP-4E-BP1, read-out: IC50 mTOR inhibition. From the text:
Now we use a Terbium labeled anti-phosphorylated 4E--BP1 antibody to detect phosphorylation of the GFP-labeled substrate by mTOR. This TR-FRET based assay can be used to screen inhibitors of mTOR in vitro.
Materials: Assay buffer components: 1M HEPES pH7.5, GIBCO, Cat#15630: 1M MgCl2, Sigma, Cat# M1028: 0.5M EDTA, GIBCO, Cat# 15575: DTT, Sigma Cat# 43819: EGTA, Sigma Cat# E3889; Triton X100, Sigma, Cat# T8787: USA CALBIOCHEM Cat# 126575.
Enzyme, substrate and detection reagents: mTOR: Invitrogen, Cat# PV4753: GFP-4E-BPI: Invitrogen, Cat# PV4759: FKBP12: SinoBiological, Cat# 10268-H08E: ATP: Sigma Cat# A26209: Tb-anti-p4E-BP1: Invitrogen, Cat# PV4755: TR-FRET Dilution buffer Invitrogen, Cat# PV3574.
Plate: Compounds preparation plate: 384-well, Corning cat# 3657: Assay plate: black low volume 384 well microtiter plate (Greiner Bio-One, Cat# 784076).
Procedure: Compounds dosage gradient solution preparation:
Compounds were 3-fold serial diluted in 100% DMSO in a microtiter plate (Corning 3674) at 11 different concentrations in the range of 100 μM to 1.7 nM (100 μM, 33 μM, 11 μM, 3.7 μM, 1.2 μM, 411 nM, 137 nM, 46 nM, 15 nM, 5 nM, 1.7 nM). Then the diluted compounds in 100% DMSO was 10-fold diluted with ddH2O, so the compounds were in 10% DMSO.
0.5 μl diluted compounds in 10% DMSO was pipetted into a black low volume 384 well microtiter plate (Greiner Bio-One, Frickenhausen, Germany, cat# 784076): 2 μl of a solution of mTOR in aqueous assay buffer |50 mM HEPES/NaOH pH 7.5. mM MgCl12, 1.0 mM dithiothreitol, 1 mM EGTA, 0.01% (v/v) Triton-X100 (Sigma), 0.01% (w/v| bovine serum albumine (BSA)| (mTOR, 0.3125 ng/μl=>final cone, in the 5 μl assay volume is 0.125 ng/μl) were added to the assay plate and the compound-enzyme mixture was incubated for 15 min at 22° C. to allow pre-binding of the test compounds to the enzyme before the start of the kinase reaction:
The kinase reaction was started by the addition of 2.5 μl of a solution of ATP (ATP, […]=>final conc., in the 5 μl assay volume is 10 μM) and substrate (0.8 μM=>final conc. in the 5 μl assay volume is 0.4 μM) in assay buffer and the resulting mixture was incubated for 18 min at 22° C.
The reaction was stopped by the addition of 5 ul of 30 mM EDTA (EDTA, 30 mM=> final cone, in the 10 ∥l assay volume is 15 mM) and 4 nM Tb-chelate labeled anti-4E-BP1 |pT46| phosphospecific antibody |Invitrogen Cat# PV4755| (Tb-labeled antibody, 4 nM=>final conc. in the 10 μl assay volume is 2 nM) in TR-FRET dilution buffer, the resulting mixture was incubated 1 hour at 22° C. to allow the formation of complex of the phosphorylated substrate and the Tb-chelate labeled antibody.
The amount of phosphorylated substrate was evaluated by measurement of the resonance energy transfer from the Tb-chelate to the GFP. Therefore, the fluorescence emission at 495 nmn and 520 nm after excitation at 340 nm was measured on envision 2104 multilabel reader (Perkin-Elmer). The ratio of the emission at 520 nm and at 495 nm was taken as the measure for the amount of phosphorylated substrate. The data were normalised (enzyme reaction without inhibitor=0% inhibition, all other assay components but no enzyme=100% inhibition) and IC50 values were calculated by a 4 parameter fit (equation (1)) using IDBS XLfit software (ID Business Solutions Ltd., UK)
Y=Bottom+(TOP−Bottom)/(1+10̂((LogIC50−X)*hillslope)) equation (1)
In this equation, Y was the normalized % inhibition value. X was the log value of the test compound concentration. IC50 was the concentration of compound where half of maximal inhibition was achieved.

Assay [2] has as its system HCT-116 human colon cancer. The following applies: 9 mg/kg/day p.o., after 22 days treatment, compared to vehicle control.
Procedure: Animals: Balb/c nude mice, female, 6-8 weeks, weighing approximately 18-20 g. A total of 70 will be needed for the study, which will be purchased from Vital River Laboratory Animal Technology Co. Ltd.
Tumor Inoculation: Each mouse will be inoculated subculaneously at the right flank with HCT-116 tumor cells (3×106) in 0.1 ml of PBS for tumor development. The treatments will be started when the tumor size reaches approximately ˜150 mm3.
Assignment to Groups: Before commencement of treatment, all animals will be weighed and the tumor volumes will be measured. […]
Endpoints: The major endpoint is to see if the tumor growth can be delayed or mice can be cured. Tumor sizes will be measured twice weekly in two dimensions using a caliper, and the volume will be expressed in mm3 using the formula: V=0.5 a×b2 where a and b are the long and short diameters of the tumor, respectively. […] T-C is calculated with T as the median time (in days) required for the treatment group tumors to reach a predetermined size (e.g., 500 mm3), and C is the median time (in days) for the control group tumors to reach the same size. […]
Statistical Analysis: for comparison between two groups, an independent sample t-test will be used. […] The potential synergistic effect between treatments will be analyzed by LSD or Dunnett's T3. All data will be analyzed using SPSS 17.0 software, p<0.05 is considered to be statistically significant.

A value given as a limit tells only on which side of the number the result lay.

T1 sequence (P42345 1360-2549 limits assumed): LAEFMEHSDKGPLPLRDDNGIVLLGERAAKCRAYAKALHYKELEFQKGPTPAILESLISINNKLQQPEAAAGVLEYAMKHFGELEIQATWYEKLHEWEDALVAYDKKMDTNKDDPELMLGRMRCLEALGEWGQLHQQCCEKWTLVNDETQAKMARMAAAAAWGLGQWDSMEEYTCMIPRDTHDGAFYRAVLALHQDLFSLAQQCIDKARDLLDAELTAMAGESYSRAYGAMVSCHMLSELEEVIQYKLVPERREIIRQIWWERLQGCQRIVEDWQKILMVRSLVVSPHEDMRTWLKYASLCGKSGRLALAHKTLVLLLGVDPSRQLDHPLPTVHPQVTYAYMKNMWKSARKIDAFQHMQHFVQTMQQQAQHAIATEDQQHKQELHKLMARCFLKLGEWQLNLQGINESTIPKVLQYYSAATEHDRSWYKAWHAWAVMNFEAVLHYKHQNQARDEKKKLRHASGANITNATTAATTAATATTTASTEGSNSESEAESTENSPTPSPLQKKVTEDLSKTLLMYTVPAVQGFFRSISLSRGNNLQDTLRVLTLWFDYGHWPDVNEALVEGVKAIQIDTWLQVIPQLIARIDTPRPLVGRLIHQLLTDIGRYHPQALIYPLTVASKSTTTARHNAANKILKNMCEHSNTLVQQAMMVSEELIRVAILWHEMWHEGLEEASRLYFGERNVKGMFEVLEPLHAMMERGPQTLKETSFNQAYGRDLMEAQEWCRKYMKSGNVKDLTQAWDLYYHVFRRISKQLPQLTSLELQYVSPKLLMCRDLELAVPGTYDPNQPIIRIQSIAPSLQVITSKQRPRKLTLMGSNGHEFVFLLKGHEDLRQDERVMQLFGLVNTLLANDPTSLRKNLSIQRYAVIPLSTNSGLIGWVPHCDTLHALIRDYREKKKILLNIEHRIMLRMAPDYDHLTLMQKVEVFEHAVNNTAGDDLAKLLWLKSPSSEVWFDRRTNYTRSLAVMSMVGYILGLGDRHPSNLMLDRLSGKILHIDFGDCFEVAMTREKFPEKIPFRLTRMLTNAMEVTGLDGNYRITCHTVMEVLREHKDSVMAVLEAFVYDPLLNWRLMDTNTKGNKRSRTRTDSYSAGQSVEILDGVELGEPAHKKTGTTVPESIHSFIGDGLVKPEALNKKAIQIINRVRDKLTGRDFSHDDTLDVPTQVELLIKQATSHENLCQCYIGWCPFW
T1 sequence (P62942 whole entry): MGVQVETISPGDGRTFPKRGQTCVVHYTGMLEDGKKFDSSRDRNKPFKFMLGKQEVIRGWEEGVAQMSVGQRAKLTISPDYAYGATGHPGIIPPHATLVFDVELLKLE

In general, IC50 refers to the concentration that gives 50% inhibition. For the molecule `CO[C@H]1C[C@@H]2CC[C@@H](C)[C@@](O)(O2)C(=O)C(=O)N2CCCC[C@H]2C(=O)O[C@H]([C@H](C)C[C@@H]2CC[C@@H](OCc3cn(CC(=O)O)nn3)[C@H](OC)C2)CC(=O)[C@H](C)/C=C(\C)[C@@H](O)[C@@H](OC)C(=O)[C@H](C)C[C@H](C)/C=C/C=C/C=C/1C` [Compound A12], the IC50 in assay [1] was > 10000 nM.

As for `CO[C@H]1C[C@@H]2CC[C@@H](C)[C@@](O)(O2)C(=O)C(=O)N2CCCC[C@H]2C(=O)O[C@H]([C@H](C)C[C@@H]2CC[C@H](n3cc(-c4ccc(S(N)(=O)=O)cc4)nn3)[C@H](OC)C2)CC(=O)[C@H](C)/C=C(\C)[C@@H](O)[C@@H](OC)C(=O)[C@H](C)C[C@H](C)/C=C/C=C/C=C/1C` [Compound B13], in assay [1], the half-inhibitory concentration (IC50) stood at 29 nM.

Consider `CO[C@H]1C[C@@H]2CC[C@@H](C)[C@@](O)(O2)C(=O)C(=O)N2CCCC[C@H]2C(=O)O[C@H]([C@H](C)C[C@@H]2CC[C@@H](OCc3cn(C45CC6CC(CC(C6)C4)C5)nn3)[C@H](OC)C2)CC(=O)[C@H](C)/C=C(\C)[C@@H](O)[C@@H](OC)C(=O)[C@H](C)C[C@H](C)/C=C/C=C/C=C/1C` [Compound A3], for which, in assay [1], the IC50 is > 10000 nM.

Take `COC1CC2CCC(C)C(O)(O2)C(=O)C(=O)N2CCCCC2C(=O)OC(C(C)CC2CCC(OCc3cn(CCO)nn3)C(OC)C2)CC(=O)C(C)C=C(C)C(O)C(OC)C(=O)C(C)CC(C)C=CC=CC=C1C` (centres unmarked) [Compound A9]: in assay [1], the half-maximal inhibitory concentration (IC50) was > 10000 nM.

On to `CO[C@H]1C[C@@H]2CC[C@@H](C)[C@@](O)(O2)C(=O)C(=O)N2CCCC[C@H]2C(=O)O[C@H]([C@H](C)C[C@@H]2CC[C@H](n3cc(-c4ccc(C(=O)O)cc4)nn3)[C@H](OC)C2)CC(=O)[C@H](C)/C=C(\C)[C@@H](O)[C@@H](OC)C(=O)[C@H](C)C[C@H](C)/C=C/C=C/C=C/1C` [Compound B11], for which the IC50 in assay [1] stood at 446 nM.

In the case of `CO[C@H]1C[C@@H]2CC[C@@H](C)[C@@](O)(O2)C(=O)C(=O)N2CCCC[C@H]2C(=O)O[C@H]([C@H](C)C[C@@H]2CC[C@H](n3cc(COc4ccc(S(N)(=O)=O)cc4)nn3)[C@H](OC)C2)CC(=O)[C@H](C)/C=C(\C)[C@@H](O)[C@@H](OC)C(=O)[C@H](C)C[C@H](C)/C=C/C=C/C=C/1C` [Compound B12], the 50% inhibitory concentration (IC50) in assay [1] was found to be 35.2 nM.

For `COC1CC2CCC(C)C(O)(O2)C(=O)C(=O)N2CCCCC2C(=O)OC(C(C)CC2CCC(OCc3cn(Cc4ccc(F)cc4)nn3)C(OC)C2)CC(=O)C(C)C=C(C)C(O)C(OC)C(=O)C(C)CC(C)C=CC=CC=C1C` (centres unmarked) [Compound A14], in assay [1], the IC50 was > 10000 nM.

`CO[C@H]1C[C@@H]2CC[C@@H](C)[C@@](O)(O2)C(=O)C(=O)N2CCCC[C@H]2C(=O)O[C@H]([C@H](C)C[C@@H]2CC[C@@H](OCCO)[C@H](OC)C2)CC(=O)[C@H](C)/C=C(\C)[C@@H](O)[C@@H](OC)C(=O)[C@H](C)C[C@H](C)/C=C/C=C/C=C/1C` [Compound A15, reference compound] showed a tumor growth inhibition in assay [2] of 63%. Also, in assay [1], the half-inhibitory concentration (IC50) was determined as 6.43 nM.

Take `CO[C@H]1C[C@@H]2CC[C@@H](C)[C@@](O)(O2)C(=O)C(=O)N2CCCC[C@H]2C(=O)O[C@H]([C@H](C)C[C@@H]2CC[C@H](n3cc(-c4cccnc4)nn3)[C@H](OC)C2)CC(=O)[C@H](C)/C=C(\C)[C@@H](O)[C@@H](OC)C(=O)[C@H](C)C[C@H](C)/C=C/C=C/C=C/1C` [Compound B9]: in assay [1], the IC50 turned out to be 27.2 nM.

As to `CO[C@H]1C[C@@H]2CC[C@@H](C)[C@@](O)(O2)C(=O)C(=O)N2CCCC[C@H]2C(=O)O[C@H]([C@H](C)C[C@@H]2CC[C@@H](OCc3c[nH]nn3)[C@H](OC)C2)CC(=O)[C@H](C)/C=C(\C)[C@@H](O)[C@@H](OC)C(=O)[C@H](C)C[C@H](C)/C=C/C=C/C=C/1C` [Compound A6], in assay [1], the half-maximal inhibitory concentration (IC50) is 9140 nM.

For `CO[C@H]1C[C@@H]2CC[C@@H](C)[C@@](O)(O2)C(=O)C(=O)N2CCCC[C@H]2C(=O)O[C@H]([C@H](C)C[C@@H]2CC[C@H](n3cc(CO)nn3)[C@H](OC)C2)CC(=O)[C@H](C)/C=C(\C)[C@@H](O)[C@@H](OC)C(=O)[C@H](C)C[C@H](C)/C=C/C=C/C=C/1C` [Compound B2], the IC50 in assay [1] came to 18.4 nM.

For the molecule `CO[C@H]1C[C@@H]2CC[C@@H](C)[C@@](O)(O2)C(=O)C(=O)N2CCCC[C@H]2C(=O)O[C@H]([C@H](C)C[C@@H]2CC[C@@H](OCc3cn(-c4ccc(N5CCN(C)CC5)cc4)nn3)[C@H](OC)C2)CC(=O)[C@H](C)/C=C(\C)[C@@H](O)[C@@H](OC)C(=O)[C@H](C)C[C@H](C)/C=C/C=C/C=C/1C` [Compound A13], the 50% inhibitory concentration (IC50) in assay [1] is > 10000 nM.

Take `CO[C@H]1C[C@@H]2CC[C@@H](C)[C@@](O)(O2)C(=O)C(=O)N2CCCC[C@H]2C(=O)O[C@H]([C@H](C)C[C@@H]2CC[C@@H](OCc3cn(-c4ccc(C(=O)O)cc4)nn3)[C@H](OC)C2)CC(=O)[C@H](C)/C=C(\C)[C@@H](O)[C@@H](OC)C(=O)[C@H](C)C[C@H](C)/C=C/C=C/C=C/1C` [Compound A4]: in assay [1], the IC50 was determined as 6600 nM.
